Assay results taken from patent publication US20220389420A1, “AGENTS FOR THE TREATMENT OF PATIENTS WITH NSCLC AND METHODS TO PREDICT RESPONSE” (CENTRE NATIONAL DE LA RECHERCHE SCIENTIFIQUE, priority 2016, published 2022).

Legend:
[1] = system: PUMA 3′UTR; assay: Luciferase assay, PUMA 3′UTR psiCHECK-2 construct in HEK293 cells; assay type: cell-based, human; details: two days after co-transfection, versus pre-miR-Neg
Experimental: (§1) (B): Results of luciferase assays in HEK293 cells transfected with the indicated constructions and pre-miR-24-3p or control miRNA.
(§2) Cells were harvested two days after transfection and luciferase activity were analysed. All renilla luciferase activities were normalized with firefly luciferase activity. **p<0.01.
(§3) Luciferase assay. Molecular constructs were made in psiCHECK-2 (Promega) by cloning behind the Renilla luciferase in the XhoI and NotI restrictions sites, annealed oligonucleotides derived from BIM, PUMA 3′ UTR. HEK293 cells were plated into 96-well and cotransfected using lipofectamin 2000 (Invitrogen) with 0.2 μg of psiCHECK-2 plasmid construct and pre-miR-24-3p or control miRNA at different concentrations. 48 hours after transfection, Firefly and Renilla Luciferase activities were measured using the Dual-Glo Luciferase assay (Promega).

[2] = system: H1975 cells; assay: Cisplatin resistance validation in H1975 cells; assay type: cell-based; details: H1975, homozygous c.818G>A mutation of the TP53 gene
Source text: (§4) (B) Validation of the effects of cisplatin in two LUAD cell lines, H1299 (with a homozygous partial deletion of the TP53 gene) and H1975 (homozygous for the c.818G<A mutation of the TP53 gene).

[3] = system: H1299 cells; assay: Cisplatin resistance validation in H1299 cells; assay type: cell-based; details: H1299, homozygous partial deletion of the TP53 gene
Source text: (A) Kill curve of H1299 cells (with a homozygous partial deletion of the TP53 gene) overexpressing miR-24-3p or a miRNA control and exposed to increasing dose of cisplatin.
as §4
(§5) Transfection. Pre-miR-24-3p, and control miRNA (miR-Neg #1) were purchased from Life technologies. For miR-24-3p knockdown experiments, LNA anti-miR-24-3p and LNA negative control were ordered from Exiqon. siRNA directed against BIM, PUMA, PNPO and PDXK were purchased from Life technologies. A549 and H1299 cells were grown in 10% FCS in DMEM and transfected at 30 to 40% confluency in 6-12- or 96 well plates using Lipofectamin RNAi MAX™ (Life technologies) with pre-miRNA, siRNAs LNA inhibitors at a final concentration of 5 nM unless indicated.
Functional genetic screen validation for miR-24-3p. Data were confirmed independently on a distinct lung adenocarcinoma cell line (H1299). Specificity to cisplatin resistance was assessed using docetaxel and vinorelbine.

[4] = system: A549 cells; assay: Caspase 3 dependent apoptotic response induced by cisplatin (Western blot); assay type: cell-based; details: miRNA overexpression in A549 cells
[5] = system: A549 cells; assay: Functional genetic screen for miRNAs inducing cisplatin resistance; assay type: cell-based; details: pre-miR library transfected two days, then cisplatin 60 μM three days, Cell Titer Glow assay
Experimental: A549 cells were transfected with the pre-miR library for two days and the transfected cells were then exposed to cisplatin at 60 μM for three days. Cell viability was measured in single well using Cell Titer Glow assay.
(A): Plot of normalized viability versus −log10 FDR-adjusted P-value for all miRNAs overexpressed in A549 cells. Vertical dashed lines denote the selected normalized viability cutoff, while the Horizontal line denotes the 0.01 selected FDR-adjusted P-value cutoff. Each dot represents a miRNA. Dots surrounded in the upper right quadrant represent miRNAs associated with cisplatin resistance at the chosen cutoffs. The standardized residual viability of the miR-24-3p miRNA was estimated at 4.9512.
Functional genetic screen. Mimics were transfected in authenticated A549 lung adenocarcinoma cell line in 96 well plate format. 48 h following transfection, cells were exposed to cisplatin at 60 μM (2 times DL50; DL50 corresponding to the drug concentration lethal to 50% of the tumor cells) for three days. Viability was assessed using the cell titer glo assay (Promega). […]
miRNA candidate selection. miRNA candidates were selected for further analysis based on statistical significance (p<0.01) and degree of resistance induced (assessed by viability after drug exposure, normalized viability above 3).

[6] = system: A549 cells; assay: DNA damage response induced by cisplatin (nuclear foci, confocal microscopy); assay type: cell-based; details: 7 h following cisplatin exposure, miRNA overexpression
Experimental: A549 cells overexpressing miR-24-3p were exposed to cisplatin for 7 h and nuclear foci of (i) phosphorylated histone H2A.X at SER139 (y-HAX) and (ii) phosphorylated ATM at Ser1981 (p-ATM) were assessed by confocal microscopy.
(C): percentage of cells (n=3) exposed to cisplatin and containing more than five nuclear foci of y-HAX and phosphor-ATM, respectively after miR-24-3p overexpression.
Immunofluorescence analysis. A549 cells were grown on a Round Glass Coverslips Ø16 mm (thermo scientific) placed inside a 12 Multiwell Plate. Coverslips slides were washed in phosphate-buffered saline and fixed in 4% paraformaldehyde for 15 min, cells were then permeated using 0.1% Triton X-102 (Agilent Technologies) for 10 min. and blocked with PBS solution containing BSA (3%) for 30 min. Incubation with primary antibodies was performed in a blocking solution BSA (1%) at 37° C. for 1 h. After three washes with PBS, cells were incubated with secondary antibodies. Forty five min later, Coverslips slides were fixed on microscope slides using ProLong Gold Antifade Reagent with DAPI (Invitrogen). Fluorescence was viewed with an FV10i Olympus confocal scanning microscope.

[7] = system: A549 cells; assay: Cisplatin sensitivity of A549 cells overexpressing miRNA (Annexin V/PI, ATP-based viability); assay type: cell-based
Experimental: A549 cells were transfected with pre-miR-24-3p for 2 days and the transfected cells were then exposed to either cisplatin or vinorelbin.
(A): Annexin V/PI staining of A549 cells overexpressing miR-24-3p and exposed to 60 μM cisplatin for 24 h.
(B): Vinorelbin dose response analysis of A549 cells overexpressing miR-24-3p. An ATP-based assay was used to assess cell viability.
as §5
Annexin V assay. Annexin-V-FITC apoptosis detection kit (Life technologies) was used to detect apoptotic activity. […] Annexin-V-FITC binding was determined by flow cytometry (excitation wavelength of 488 nm; emission wavelength of 530 nm) using the FITC signal detector (FL1), and propidium iodide staining was detected by the phycoerythrin emission signal detector (FL2).

[8] = system: human BIM 3′UTR; assay: Luciferase assay, BIM 3′UTR psiCHECK-2 construct in HEK293 cells; assay type: cell-based; details: two days after co-transfection, versus pre-miR-Neg
Experimental: as §1, §2, §3

With “pre-miR-24-3p: miRNA mimic purchased from Life technologies, used to overexpress miR-24-3p (UGGCUCAGUUCAGCAGGAACAG, SEQ ID No:1) (listed as RNA, chemistry not given here)” the “direct targeting of PUMA 3′UTR (renilla luciferase normalized with firefly)” value [1] was “direct targets”, the cisplatin resistance [2] was “contributed to cisplatin resistance independently of p53” and the cisplatin resistance [3] was “contributed to cisplatin resistance independently of p53”. For the same substance, the “caspase 3 dependent apoptotic response induced by cisplatin” value [4] was “strongly inhibits”, the standardized residual viability [5] was 4.9512 and the ATM signaling [6] was “decreased ATM signaling”. The “DNA damage (phospho-yH2AX nuclear foci)” value [6] was “less DNA damage”, the “resistance to platinum based-compounds (cisplatin, carboplatin, oxaliplatin)” value ([7]; A549 cells overexpressing the miRNA, comparison with vinorelbin treatment) was “strongly resistant” and the response to cisplatin ([7]; A549 cells transfected with pre-miR, versus cells not overexpressing miR-24-3p) was “the response to cisplatin was lesser”. The “direct targeting of BIM 3′UTR (renilla luciferase normalized with firefly)” value [8] was “direct targets”.
